{
  "source": "patent US20100048545A1",
  "about": "“Compounds and Compositions for Use in the Prevention and Treatment of Disorders of Fat Metabolism and Obesity” (INNODIA INC., priority 2006, published 2010)",
  "key": {"ATGL": {"tested_on": "ATGL", "test": "RT-PCR gene expression in adipocytes of treated rats: ATGL", "assay_type": "in vivo", "protocol": "(§1) As the ex vivo studies on adipocytes indicated the lipolytic effect of drug was due to chronic exposure (see previous example), a role in gene regulation was assessed. RT-PCR was used to assess the expression of genes in the adipocytes from treated and control animals."}, "DIO-mice": {"tested_on": "DIO-mice", "conditions": "for food consumption: 4-OH 50 or 100 mg/kg", "text": "The objective of this study was to evaluate the effect of chronic administration of 4-hydroxyisoleucine (4-OH, compound 14a) and Rosiglitazone, administered alone or in combination, on food consumption and body weight gain of DIO-mice. Both parameters were monitored for 1 week prior to the commencement of treatment, then for the 28 days of treatment and for an additional 7 days post-treatment.\nA total of 72 animals were used in the study. The animals were distributed into 6 groups (5 treated, 1 control group, all on high fat diet). Each group was composed of 12 animals. The mice were randomized according to body weight and basal glycemia values following a 5±0.5 hour fasting period.\nFor the four weeks of treatment, the test articles were dissolved in reverse osmosis water. 4-Hydroxyisoleucine was aliquoted and kept at 4° C. (administration to groups 2, 3, and 6), while Rosiglitazone was freshly prepared daily and kept at 4° C. between the AM and PM administration to groups 4, 5, and 6. Control animals received reverse osmosis water twice daily (group 1). Mice from groups 2 and 3 were treated twice daily with 4-OH at 50 and 100 mg/kg, respectively. Animals from groups 4 and 5 received 1.5 and 5 mg/kg of Rosiglitazone, respectively. […] All groups were treated by oral gavage. Treatment commenced on Day 0 and ended on Day 28 (FIGS. 18A and 18C.\nFood consumption was measured and averaged on a weekly basis beginning one week before the start of treatment as shown in FIGS. 18B and 18D as week −1. Similarly, food consumption was monitored for one week after treatment was stopped and is shown as week 5 in FIGS. 18B and 18D, In FIG. 18B, the food consumption over time for various treatment groups is illustrated by the bar graph."}, "wistar obese rats": {"tested_on": "wistar obese rats", "test": "Reversal of weight gain in rat model of diet-induced obesity, 28 days", "conditions": "100 mg/kg twice daily oral", "text": "The aim of this study was to evaluate the effect of chronic administration of 4-hydroxyisoleucine (4-OH, Compound 14a) on food consumption, tissue weight, and body weight gain of wistar obese rats.\nA total of 30 animals were used in the study. The animals were acclimated for 1 week and fed standard chow. The animals were randomized into 3 groups of 10 animals each. Two groups were fed a high fat, high sucrose diet (HFHS), and 1 untreated control group was fed standard chow over a 28 day period. Animals were housed separately and food consumption was monitored daily.\nIn the following period of 28 days, the feeding regimen remained the same for the 3 groups; however, 1 group fed HFHS was treated with twice daily oral administration of 4-OH at 100 mg/kg per dose. For the 28 days of treatment, 4-OH was dissolved in reverse osmosis water, aliquoted, and kept at 4° C. Untreated animals received water twice daily."}, "CPT1": {"tested_on": "CPT1", "test": "RT-PCR gene expression in adipocytes of treated rats: CPT1", "assay_type": "in vivo", "conditions": "data not shown", "protocol": "as §1"}, "[1]": {"tested_on": "lean mice subjected to a high fat diet", "test": "Prevention of obesity in lean mice subjected to a high fat diet, 21 days", "assay_type": "in vivo, C57BL/6 mice", "conditions": "for transient increase of caloric intake: HFD", "text": "C57BL/6 mice were fed a standard chow (LabDiet #5001; 12% of calories from fat) upon arrival and during the acclimation and pre-treatment periods. […] Treatment was initiated on the first day of experimentation (Day 1) and lasted 21 days. Animals from group 1 were fed the standard chow for the duration of the study and received water orally twice daily (ND: normal diet control). Mice from group 2 were given the high fat diet (HFD; 60% of calories from fat) starting on day 1 of experimentation and until day 21 of the study. These mice also received water by oral gavage and served as the high fat diet control (ND→HFD). Mice from group 3 and 4 were also fed the high fat diet upon start of treatment on day 1 and for the duration of the study but were treated orally twice daily with 100 and 150 mg/kg of 4-OH. From day 1 to day 21 of the study, body weight and food consumption were measured daily."}, "FatB1": {"tested_on": "FatB1", "test": "RT-PCR gene expression in adipocytes of treated rats: FatB1", "assay_type": "in vivo", "conditions": "data not shown", "protocol": "as §1"}, "Agouti mice": {"tested_on": "Agouti mice", "test": "Weight gain and food consumption in Agouti mice, 21 days", "assay_type": "in vivo", "conditions": "50 or 100 mg/kg orally twice daily", "protocol": "Agouti mice, which are obese, diabetic and leptin resistant, were treated orally twice daily with 50 or 100 mg/kg of 4-[…] for 21 consecutive days. Body weight and food consumption were measured daily."}, "obese mice": {"tested_on": "obese mice", "test": "Compound 22 and 4-hydroxyisoleucine on weight gain of obese mice, 21 days", "assay_type": "in vivo, C57BL/6 mice", "conditions": "p<0.01", "protocol": "The objective of the following study was to evaluate the effect of the lactone form of 4-hydroxyisoleucine (compound 22) on the weight gain of obese mice. 40 C57BL/6 mice were fed a high fat diet (60% of calories from fat) for 6 weeks in order to induce obesity. Animals were than randomized to 5 study groups of 8 mice each according to their body weight values. Thereafter, the animals were treated orally twice daily with either the water vehicle, 50 mg/kg of compound 22, 100 mg/kg of compound 22, 50 mg/kg of 4-hydroxyisoleucine or 100 mg/kg of 4-hydroxyisoleucine. The treatment lasted 21 days and body weight of mice were determined daily from day 1 to day 21 of the study."}},
  "note": "Entries after “also recorded” stand apart in the source; their conditions may differ. Like-named read-outs stand apart in the source and are kept apart here.",
  "data": [
    {"smiles": "C[C@@H]([C@H](C)O)[C@H](N)C(=O)O", "note": "[Compound 14a, (2S,3R,4S)-4-Hydroxyisoleucine]", "values": [
      {"measurement": "expression of ATGL, increase", "setting": "ATGL", "result": "more than two times"},
      {"measurement": "Increase (x times) in expression of ATGL", "setting": "ATGL; HFHS diet, treated for 4 weeks (28 days)", "result": 2.6, "unit": "x times"},
      {"measurement": "weight gain", "setting": "DIO-mice; 4-OH 100 mg/kg twice daily", "result": "Moderation of weight gain was observed"},
      {"measurement": "food consumption", "setting": "DIO-mice; first week of treatment, listed as 4-OH", "result": "food consumption decreased; also recorded: reduction in food consumption during the first week, but not after"},
      {"measurement": "food consumption", "setting": "DIO-mice; remainder of the treatment phase", "result": "consumption returned to pre-treatment levels"},
      {"measurement": "weight gain", "setting": "DIO-mice; Rosiglitazone 1.5 mg/kg with 4-OH 50 mg/kg, relative to the group treated with Rosiglitazone alone", "result": "able to modulate the weight gain induced by Rosiglitazone"},
      {"measurement": "epididymal and peri-renal adipose tissue", "setting": "wistar obese rats", "result": "reduction of epididymal and peri-renal adipose tissue"},
      {"measurement": "food consumption", "setting": "wistar obese rats", "result": "reduction in food consumption"},
      {"measurement": "muscle, brown fat, and organ weight", "setting": "wistar obese rats", "result": "not affected"},
      {"measurement": "tolerability of treatment", "setting": "wistar obese rats; after 28 days HFHS", "result": "well tolerated"},
      {"measurement": "weight gain", "setting": "wistar obese rats; after 28 days HFHS", "result": "reversal of weight gain"},
      {"measurement": "weight gain", "setting": "wistar obese rats; after 28 days HFHS, listed as 4-OH", "result": "Moderation of weight gain was observed"},
      {"measurement": "expression of CPT1", "setting": "CPT1", "result": "Upregulation"},
      {"measurement": "transient increase of caloric intake", "setting": "[1]; 100 mg/kg", "result": "less pronounced"},
      {"measurement": "transient increase of caloric intake", "setting": "[1]; 150 mg/kg", "result": "completely abolished this increase of caloric intake"},
      {"measurement": "caloric intake", "setting": "[1]; 150 mg/kg, day 2 to day 6 of treatment", "result": "even lower than mice fed the standard chow"},
      {"measurement": "weight gain induced by high fat feeding", "setting": "[1]; 100 and 150 mg/kg orally twice daily, 21 days", "result": "completely prevented"},
      {"measurement": "epididymal fat weight", "setting": "[1]; 100 and 150 mg/kg, after 21 days, p<0.01", "result": "prevented significantly the increase of weight of the epididymal fat"},
      {"measurement": "body weight compared to ND mice", "setting": "[1]; highest dose (150 mg/kg), high fat diet", "result": "decreased body weight compared to mice fed the standard chow"},
      {"measurement": "expression of FatB1", "setting": "FatB1", "result": "Upregulation"},
      {"measurement": "food intake", "setting": "Agouti mice", "result": "little effect on food intake"},
      {"measurement": "body weight gain", "setting": "Agouti mice; vs vehicle", "result": "significant decrease of body weight gain"},
      {"measurement": "body weight", "setting": "obese mice; 100 mg/kg orally twice daily, 21 days, vs water control", "result": "significant reduction of body weight compared to the water control group"},
      {"measurement": "white fat mass (epididymal fat)", "setting": "obese mice; 100 mg/kg, end of treatment", "result": "loss of the white fat mass (epididymal fat)"}
    ]}
  ]
}
